The values that follow come from patent US5061708A, “Therapeutic guanine esters” (priority 1987, dated 1991).

The IC50 is the midpoint of a concentration-inhibition curve. A high value points to a need for much substance.

The structures appear in SMILES notation. Where a name gives a salt, the structure may show the parent alone.

For data set [1] the following is noted: in words; cited from earlier work.
In data set [2] the test system is herpes viruses. The following applies: particularly against herpes viruses, in words; cited from earlier work.
The subject of data set [3] is Herpes Simplex Virus (HSV 1). In words: HSV 1 plaque reduction assay in monolayers of Vero cells. Type of data set: cell-based. The following applies: HSV 1, Vero cells, 50% inhibitory concentration. The protocol:
Herpes Simplex Virus (HSV 1) was assayed in monolayers of Vero cells in multiwell trays. Activity of compounds was determined in the plaque reduction assay, in which a cell monolayer was infected with a suspension of HSV 1, and then overlaid with nutrient agarose in the form of a gel to ensure that there was no spread of virus throughout the culture. A range of concentrations of compound of known molarity was incorporated in the nutrient agarose overlay. Plaque numbers at each concentration were expressed as percentages of the control and a dose-response curve was drawn. From this curve the 50% inhibitory concentration (IC50) was estimated.
Background: In a plaque reduction assay, fewer plaques than in the control indicate reduced infectivity or spread.

Consider `Nc1nc2c(ncn2COCCO)c(=O)[nH]1` [Acyclovir, 9-(2-Hydroxyethoxymethyl)guanine], for which the “absorption from the gastrointestinal tract after oral administration” value in data set [1] is listed as “only poorly absorbed”. In addition, the antiviral activity entry in data set [2] was “potent antiviral activity”. In addition, the IC50 in data set [3] lay in the range of 0.08 to 0.1 µM.
Regarding `CC[C@H](C)[C@H](N)C(=O)OCCOCn1cnc2c(=O)[nH]c(N)nc21` [Example 1, 2-(2-Amino-1,6-dihydro-6-oxo-9H(purin-9-yl)methoxy)ethyl L-isoleucinate hydrochloride], in data set [3], half-maximal inhibition (IC50) required 3.8 µM.
